According to US8029770B2 (Rutgers, The State University, priority 2003, dated 2011):
“Also recorded” adds a separate entry of the source. Where two headings read alike, the source gives them in different places. Marks after values point to notes of the source that are not given here.

Columns and labels:
[1] = Weight of mouse during topical treatment of UVB-pretreated high risk SKH-1 mice; format: in vivo
Method: Female SKH-1 mice were treated with 30 mJ/cm^2 of UVB twice a week for 20 weeks.

cyclin B1 = test: Epidermal cyclin B1 in UVB-treated mice, western blot and immunohistochemistry; format: in vivo, mouse
phospho-Chk2 (Ser387) = test: Epidermal phospho-Chk2 (Ser387) in UVB-treated mice, western blot; format: in vivo, mouse; details: topical immediately after UVB 30 mJ/cm2; 6 hours
[2] = test system: UVB-induced skin tumors in high risk SKH-1 mice
[3] = test system: apoptotic sunburn cells in the epidermis of SKH-1 mice; test: UVB-induced apoptotic sunburn cells in the epidermis of SKH-1 mice after topical application; format: in vivo, mouse; details: for Percent Apoptotic Sunburn Cells, Non-UVB Treated: no UVB
Method: Chemicals and Animals. […] Female SKH-1 hairless mice (6 to 7 weeks old) were purchased from the Charles River Breeding Laboratories, and the animals were kept in an animal facility for at least one week before use at 7 to 8 weeks of age. Mice were given water and PURINA® Laboratory CHOW® 5001 diet from Ralston-Purina (St. […] For the analysis conducted herein, 5 mice were used per group. Treatment of Mice with UVB. […] The radiation was further calibrated with a model IL-1700 research radiometer/photometer (International Light, Newburyport, Mass.). Measurement of apoptotic sunburn cells. Identification of apoptoic sunburn cells was based morphologically on cell shrinkage and nuclear condensation due to fragmentation of the cells. […] Six hours after UVB, the animals were sacrificed and apoptotic sunburn cells in the epidermis were determined morphologically. […] Six hours after UVB, the animals were sacrificed and apoptotic sunburn cells in the epidermis were determined morphologically. […] Acetone Formulation. […] Six hours after UVB, the animals were sacrificed and apoptotic sunburn cells in the epidermis were determined morphologically. […] […] Formulations. […] Six hours after UVB the animals were sacrificed and apoptotic sunburn cells in the epidermis were determined morphologically. […] Six hours after UVB the animals were sacrificed and apoptotic sunburn cells in the epidermis were determined morphologically.

[4] = test system: UVB-induced skin lesions in SKH-1 mice; test: Prevention of UVB-induced skin (sunburn) lesions, sunscreen effect; format: in vivo, mouse; details: 4.8% caffeine or 8.0% caffeine sodium benzoate (24 μmoles) in 100 mg DERMABASE 30 minutes before UVB 180 mJ/cm^2 on two consecutive days (FIG. 2)
Method: The areas (mm^2) and the intensity of red color in UVB-induced skin lesion were estimated semi-quantitatively 5 days after first UVB treatment. The lesion index were calculated as the lesion area multiplied by the arbitrary intensity: 0, no lesion; 1 barely detectable red lesion; 2 moderate red lesion, and 3, bright red lesion.
Outdoor occupational human exposure to UVB or a sunbathing exposure in the summer has been reported to range from 50-100 mJ/cm^2 per day (Larko, et al. (1983) Clin. Exp. Dermatol. 8:279-285; Diffey (1991) Phys. Med. Biol. 36:299-328).

## Cn1c(=O)c2c(ncn2C)n(C)c1=O.O=C([O-])c1ccccc1.[Na+] [Caffeine Sodium Benzoate, caffeine sodium benzoate]
[1]; week 0, 2% CSB in DERMABASE
  Weight of mouse: 30.5 ± 0.5 g
[1]; week 0, 6% CSB in DERMABASE
  Weight of mouse: 30.4 ± 0.6 g
[1]; week 5, 2% CSB in DERMABASE
  Weight of mouse: 30.3 ± 0.4 g
[1]; week 5, 6% CSB in DERMABASE
  Weight of mouse: 29.9 ± 0.5 g
[1]; week 7, 2% CSB in DERMABASE
  Weight of mouse: 30.6 ± 0.4 g
[1]; week 7, 6% CSB in DERMABASE
  Weight of mouse: 29.8 ± 0.5 g
[1]; week 9, 2% CSB in DERMABASE
  Weight of mouse: 30.6 ± 0.4 g
[1]; week 9, 6% CSB in DERMABASE
  Weight of mouse: 30.0 ± 0.5 g
[1]; week 11, 2% CSB in DERMABASE
  Weight of mouse: 30.7 ± 0.5 g
[1]; week 11, 6% CSB in DERMABASE
  Weight of mouse: 30.2 ± 0.5 g
Cyclin B1; UVB-treated mice, frozen sections, immunohistochemical
  percent of cyclin B1 positive cells in the epidermis: substantially enhanced
Cyclin B1; no UVB
  effect on cyclin B1 positive cells in the absence of UVB: little or no effect
Cyclin B1; topical immediately after UVB 30 mJ/cm2, western blot
  level of epidermal cyclin B1 vs UVB alone: increased substantially
phospho-Chk2 (Ser387)
  UVB-induced increase in the level of phospho-Chk2 (Ser387): inhibited
[2]; week 0, 2% CSB in DERMABASE
  No. of large tumors (diameter > 5 mm): 0
  Tumor volume per mouse (all mice) (mm^3): 0 mm^3
  Tumor volume per tumor (mm^3): 0 mm^3
  Tumors per mouse: 0
[2]; week 0, 6% CSB in DERMABASE
  No. of large tumors (diameter > 5 mm): 0
  Tumor volume per mouse (all mice) (mm^3): 0 mm^3
  Tumor volume per tumor (mm^3): 0 mm^3
  Tumors per mouse: 0
[2]; week 5, 2% CSB in DERMABASE
  No. of large tumors (diameter > 5 mm): 0
  Tumor volume per mouse (all mice) (mm^3): 0.1 ± 0.1 mm^3
  Tumor volume per tumor (mm^3): 0.5 ± 0.0 mm^3
  Tumors per mouse: 0.2 ± 0.1
[2]; week 5, 6% CSB in DERMABASE
  No. of large tumors (diameter > 5 mm): 0
  Tumor volume per mouse (all mice) (mm^3): 0.0 ± 0.0 mm^3
  Tumor volume per tumor (mm^3): 0.5 ± 0.0 mm^3
  Tumors per mouse: 0.0 ± 0.0
[2]; week 7, 2% CSB in DERMABASE
  No. of large tumors (diameter > 5 mm): 0
  Tumor volume per mouse (all mice) (mm^3): 0.6 ± 0.4 mm^3
  Tumor volume per tumor (mm^3): 1.5 ± 0.5 mm^3
  Tumors per mouse: 0.4 ± 0.2
[2]; week 7, 6% CSB in DERMABASE
  No. of large tumors (diameter > 5 mm): 0
  Tumor volume per mouse (all mice) (mm^3): 0.1 ± 0.1 mm^3
  Tumor volume per tumor (mm^3): 0.5 ± 0.0 mm^3
  Tumors per mouse: 0.2 ± 0.1
[2]; week 9, 2% CSB in DERMABASE
  No. of large tumors (diameter > 5 mm): 0
  Tumor volume per mouse (all mice) (mm^3): 1.0 ± 0.5 mm^3
  Tumor volume per tumor (mm^3): 1.9 ± 0.9 mm^3
  Tumors per mouse: 0.5 ± 0.2
[2]; week 9, 6% CSB in DERMABASE
  No. of large tumors (diameter > 5 mm): 0
  Tumor volume per mouse (all mice) (mm^3): 0.3 ± 0.2 mm^3
  Tumor volume per tumor (mm^3): 0.9 ± 0.4 mm^3
  Tumors per mouse: 0.3 ± 0.1
[2]; week 11, 2% CSB in DERMABASE
  No. of large tumors (diameter > 5 mm): 0
  Tumor volume per mouse (all mice) (mm^3): 1.8 ± 0.2 mm^3
  Tumor volume per tumor (mm^3): 2.1 ± 0.6 mm^3
  Tumors per mouse: 0.9 ± 0.3
[2]; week 11, 6% CSB in DERMABASE
  No. of large tumors (diameter > 5 mm): 0
  Tumor volume per mouse (all mice) (mm^3): 1.0 ± 0.4 mm^3
  Tumor volume per tumor (mm^3): 2.0 ± 0.5 mm^3
  Tumors per mouse: 0.5 ± 0.2
[3]; 6.2 μmole (each) in 100 μL acetone:water (9:1) immediately after UVB 30 mJ/cm^2 and at 30 and 120 min, 6 h, mean ± S.E.
  Percent Sunburn Cells, UVB: 1.10 ± 0.10%
[3]; 6.2 μmole in 100 μL acetone right after UVB 30 mJ/cm^2 and at 30 and 120 min, 6 h after UVB, mean ± S.E.
  Percent Apoptotic Sunburn Cells: 1.089 ± 0.080^a %
[3]; 100 mg formulation (2.4% caffeine or 4.0% caffeine sodium benzoate, 12.4 μmole, in DERMABASE; or commercial product) immediately after UVB 30 mJ/cm^2, 6 h
  Percent Sunburn Cells, UVB: 2.33 ± 0.36^a %
[3]; 1.0% CSB in 100 mg DERMABASE immediately after UVB 30 mJ/cm^2, 6 h
  Percent Sunburn Cells, UVB: 0.74 ± 0.20^a %
[3]; 2.0% CSB in 100 mg DERMABASE immediately after UVB 30 mJ/cm^2, 6 h
  Percent Sunburn Cells, UVB: 0.99 ± 0.20^a %
[3]; 4.0% CSB in 100 mg DERMABASE immediately after UVB 30 mJ/cm^2, 6 h
  Percent Sunburn Cells, UVB: 1.22 ± 0.19^a %
[3]; 6.0% CSB in 100 mg DERMABASE immediately after UVB 30 mJ/cm^2, 6 h
  Percent Sunburn Cells, UVB: 1.67 ± 0.31^a %
[3]; 8.0% CSB in 100 mg DERMABASE immediately after UVB 30 mJ/cm^2, 6 h
  Percent Sunburn Cells, UVB: 1.75 ± 0.32^a %
[3]; DERMABASE vehicle, equimolar amounts (Table 4)
  enhancement of UVB-induced apoptosis in the epidermis, applied in DERMABASE: to a greater extent than equimolar amounts of caffeine
[3]; Exp-1, 6.2 μmole in acetone:water (9:1) x3 after UVB 30 mJ/cm^2, 6 h
  Percent Apoptotic Sunburn Cells: 1.09 ± 0.08%
[3]; Exp-2, 3.1 μmole in acetone:water (9:1) x3 after UVB 30 mJ/cm^2, 6 h
  Percent Apoptotic Sunburn Cells: 0.45 ± 0.07%
[3]; Exp-2, 3.1 μmole
  Percent Apoptotic Sunburn Cells, Non-UVB Treated: 0.02 ± 0.01%
[3]; Exp-2, 6.2 μmole in acetone:water (9:1) x3 after UVB 30 mJ/cm^2, 6 h
  Percent Apoptotic Sunburn Cells: 0.68 ± 0.06%
[3]; Exp-2, 6.2 μmole
  Percent Apoptotic Sunburn Cells, Non-UVB Treated: 0.03 ± 0.01%
[3]; Table 1, vs acetone group, 6.2 μmole x3 after UVB 30 mJ/cm^2, 6 h
  % Induction: 434%
[3]; Table 3 Exp-1, 6.2 μmole
  % Induction: 445%
[3]; Table 3 Exp-2, 3.1 μmole
  % Induction: 114%
[3]; Table 3 Exp-2, 6.2 μmole
  % Induction: 224%
[3]; Table 4, 1.0% CSB in DERMABASE
  % Induction: 270%
[3]; Table 4, 2.0% CSB in DERMABASE
  % Induction: 395%
[3]; Table 4, 4.0% CSB in DERMABASE
  % Induction: 510%
[3]; Table 4, 6.0% CSB in DERMABASE
  % Induction: 735%
[3]; Table 4, 8.0% CSB in DERMABASE
  % Induction: 775%
[3]; no UVB (Table 3)
  effect on non-UVB-treated cells: unaffected
[4]
  formation of UVB-induced sunburn (skin) lesions: significantly prevented skin lesion formation; also recorded: inhibited the formation of sunburn lesions; also recorded: even more dramatic inhibitory effect
